Columns and labels:
[1] = target: T1, human sphingosine-1-phosphate receptor 1 (S1P1) (Homo sapiens (Human), UniProt P21453); experiment: Inhibition of cAMP production (HTRF cAMP HiRange), S1P1 CHO-K1 cells; format: cell-based; conditions: for Emax: CHO-K1, efficacy (SPAN) normalized to fingolimod, read-out: hS1P1 cAMP SPAN
In short: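 CHO-K1 cells stably co-expressing human S1P1 (C-terminal Prolink tag) and EA-β-arrestin2 were grown in AssayComplete Media 6 at 37° C. and 5% CO2, plated, and incubated overnight. Agonist-driven inhibition of intracellular cAMP was read by TR-FRET with the HTRF cAMP HiRange kit on a PheraStar reader. Potency is pEC50, and efficacy (SPAN) is normalized to fingolimod.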
Target sequence in this assay (P21453 whole entry, looked up): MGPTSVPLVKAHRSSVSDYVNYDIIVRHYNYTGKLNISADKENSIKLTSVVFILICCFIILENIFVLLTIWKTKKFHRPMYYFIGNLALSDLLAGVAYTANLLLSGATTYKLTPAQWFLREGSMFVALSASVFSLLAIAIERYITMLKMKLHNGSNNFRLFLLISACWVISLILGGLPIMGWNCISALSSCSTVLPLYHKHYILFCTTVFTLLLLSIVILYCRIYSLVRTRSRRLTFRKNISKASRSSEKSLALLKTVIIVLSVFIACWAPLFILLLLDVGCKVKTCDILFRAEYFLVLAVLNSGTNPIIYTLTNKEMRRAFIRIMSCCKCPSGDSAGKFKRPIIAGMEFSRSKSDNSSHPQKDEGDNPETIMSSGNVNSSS

[2] = target: T1, human sphingosine-1-phosphate receptor 1 (S1P1); experiment: β-Arrestin2 recruitment assay (PathHunter), S1P1 CHO-K1 cells; format: cell-based; conditions: for Emax: CHO-K1, efficacy (SPAN) normalized to fingolimod, read-out: hS1P1 B-arrestin2 SPAN
In short: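 Enzyme-fragment complementation read-out: agonist-driven β-arrestin2 binding to ProLink-tagged human S1P1 in stable CHO-K1 cells restores β-galactosidase, measured 1 h at room temperature after a 60 min 37° C. compound incubation. Potency as pEC50, efficacy relative to fingolimod (SPAN).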
Target sequence in this assay (P21453 whole entry, looked up): as above
Target sequence in this assay (P32121 whole entry partner, looked up): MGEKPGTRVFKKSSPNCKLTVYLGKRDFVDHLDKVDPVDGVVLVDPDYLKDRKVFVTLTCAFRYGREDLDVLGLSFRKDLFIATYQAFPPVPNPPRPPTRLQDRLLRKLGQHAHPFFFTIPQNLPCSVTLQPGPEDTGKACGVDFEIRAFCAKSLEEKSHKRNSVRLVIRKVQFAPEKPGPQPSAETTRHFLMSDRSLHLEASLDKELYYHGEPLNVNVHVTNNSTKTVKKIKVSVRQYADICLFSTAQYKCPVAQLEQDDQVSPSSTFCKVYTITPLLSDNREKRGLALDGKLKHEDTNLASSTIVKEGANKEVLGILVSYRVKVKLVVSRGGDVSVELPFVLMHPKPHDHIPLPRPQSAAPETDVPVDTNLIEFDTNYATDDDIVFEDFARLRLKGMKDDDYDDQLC

[3] = system: paclitaxel induced peripheral neuropathy; experiment: Reversal of allodynia induced by paclitaxel in mice (s.c. or p.o., von Frey frequency method); format: in vivo, c57bl/6 mice; conditions: Mus musculus; for inhibition in vivo at 3 mg/kg: po, 1 h, 3 mg/kg p.o., tested 60 min after dosing, read-out: Screen @ 3 mg/kg po (% MPE); for inhibition in vivo at 1 mg/kg: sc, 0.5 h, 1 mg/kg s.c., tested 30 min after dosing, read-out: Screen @ 1 mg/kg sc (% MPE)
In short: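 Neuropathy was induced in mice by paclitaxel (6 mg/kg i.p., days 1, 3, 5, 7) or oxaliplatin (4 mg/kg i.p., days 1-5), with re-testing about 14 days later. Compounds were given s.c. (tested at 30 min) or p.o. (tested at 60 min; paclitaxel only). A 0.4 g von Frey filament was applied ten times per paw, and % non-response was converted to % MPE.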

[4] = target: human sphingosine-1-phosphate receptor 2 (S1P2) (Homo sapiens (Human), UniProt O95136); experiment: Inositol monophosphate production (IP-one TB kit), S1P2 CHO-K1 cells; format: cell-based; conditions: for Emax: CHO-K1, efficacy normalized to CYM5520, read-out: hS1P2 IP-one SPAN; for hS1P2 IP-one pEC50: inositol monophosphate accumulation
Chain of human sphingosine-1-phosphate receptor 2 (S1P2) (O95136 whole entry): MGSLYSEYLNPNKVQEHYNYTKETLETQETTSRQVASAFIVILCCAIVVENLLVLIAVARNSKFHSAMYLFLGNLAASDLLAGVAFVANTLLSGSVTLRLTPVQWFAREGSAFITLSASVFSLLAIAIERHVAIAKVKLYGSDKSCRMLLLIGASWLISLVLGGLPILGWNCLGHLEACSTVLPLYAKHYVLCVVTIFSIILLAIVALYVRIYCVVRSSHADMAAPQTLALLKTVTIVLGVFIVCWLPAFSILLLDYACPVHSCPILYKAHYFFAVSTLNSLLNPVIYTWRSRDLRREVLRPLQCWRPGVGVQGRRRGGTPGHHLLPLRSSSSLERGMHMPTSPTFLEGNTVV
Procedure: (§1) Stable clonal Chinese hamster ovary K1 (CHO-K1) cells co-expressing EA-β-arrestin2 and the human sphingosine-1-phosphate receptor 2 (NM_004230.3, S1P2), human sphingosine-1-phosphate receptor 3 (NM_005226, S1P3) and sphingosine-1-phosphate receptor 5 (NM_001166215.1, S1P5) with a C-terminal Prolink™ tag were purchased from DiscoverX corporation (S1P2: Cat #93-0256C2, S1P3: Cat #93-0217C2, S1P5: Cat #93-0583C2).
(§2) Cell lines were cultured in AssayComplete™ Media 6 (DiscoverX Corporation, Cat #: 920018GF2) at 37° C. and 5% CO2 in a humidified CO2 and temperature-controlled incubator. To begin assay plating, cells were washed with dulbecco's phosphate buffered saline (CellGro, Cat #: 21-031-CV) and lifted from the culturing flask by incubation (37° C., 5 min) with CellStripper (Cellgro, Cat #: 25-056-CI). […] Plated cells were incubated overnight at 37° C. and 5% CO2 in a humidified CO2 and temperature-controlled incubator.
S1P2 Agonist-promoted G-protein responses were determined by measuring changes in intracellular inositol monophosphate using the IP-one TB kit (CisBio, Cat #: 62IPAPEJ) based on time-resolved fluorescence resonance energy transfer (TR-FRET) technology. AssayComplete™ Cell Plating 2 Reagent was removed and replaced with 1× IP-one stimulation buffer (as per manufacturer's instructions) along with test or control compounds at the desired concentrations. Following a 60-minute incubation at 37° C. and 5% CO2 in a humidified CO2 and temperature-controlled incubator, the components of the IP-one TB kit were added as per the manufacturer's instructions. After an hour incubation at room temperature, plates were analyzed by a BMG PheraStar microplate reader.
(§3) The tables below include the efficacy of the compound as compared to a positive control, referred to as “SPAN”. These values are normalized to fingolimod, a known agonist of the sphingosine-1-phosphate 3 and 5 receptor or CYM5520, a known agonist of the sphingosine-1-phosphate 2 receptor. The tables also include potency values (pEC50) for modulating discrete receptor-mediated activities (inhibition of cAMP production or inositol monophosphate accumulation).

[5] = target: human sphingosine-1-phosphate receptor 3 (S1P3) (Homo sapiens (Human), UniProt Q99500); experiment: Inhibition of cAMP production (HTRF), S1P3 CHO-K1 cells; format: cell-based; conditions: for Emax: CHO-K1, efficacy normalized to fingolimod, read-out: hS1P3 cAMP SPAN; for hS1P3 cAMP pEC50: inhibition of cAMP production
Chain of human sphingosine-1-phosphate receptor 3 (S1P3) (Q99500 whole entry): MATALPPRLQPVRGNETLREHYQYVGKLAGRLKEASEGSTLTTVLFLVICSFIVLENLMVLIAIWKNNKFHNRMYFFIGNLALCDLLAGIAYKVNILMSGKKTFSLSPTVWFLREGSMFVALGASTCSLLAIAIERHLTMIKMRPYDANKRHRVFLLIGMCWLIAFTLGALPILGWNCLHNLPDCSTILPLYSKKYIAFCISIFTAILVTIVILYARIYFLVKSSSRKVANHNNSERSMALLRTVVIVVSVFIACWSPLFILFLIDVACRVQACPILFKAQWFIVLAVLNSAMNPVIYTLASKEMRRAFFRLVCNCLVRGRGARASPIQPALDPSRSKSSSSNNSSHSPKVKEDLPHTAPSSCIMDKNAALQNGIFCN
Procedure: as §1, §2
(§4) S1P3 and S1P5 Agonist-promoted G-protein responses were determined by measuring changes in intracellular cAMP using the HTRF® cAMP HiRange kit (CisBio, Cat #: 62AM6PEJ) based on time-resolved fluorescence resonance energy transfer (TR-FRET) technology. […] Following a 30-minute room temperature incubation the components of the cAMP HiRange kit were added as per the manufacturer's instructions. After an hour incubation at room temperature, plates were analyzed by a BMG PheraStar microplate reader.
as §3

[6] = target: sphingosine-1-phosphate receptor 5 (S1P5) (Homo sapiens (Human), UniProt Q9H228); experiment: Inhibition of cAMP production (HTRF), S1P5 CHO-K1 cells; format: cell-based; conditions: for Emax: CHO-K1, efficacy normalized to fingolimod, read-out: hS1P5 cAMP SPAN; for hS1P5 cAMP pEC50: inhibition of cAMP production
Chain of sphingosine-1-phosphate receptor 5 (S1P5) (Q9H228 whole entry): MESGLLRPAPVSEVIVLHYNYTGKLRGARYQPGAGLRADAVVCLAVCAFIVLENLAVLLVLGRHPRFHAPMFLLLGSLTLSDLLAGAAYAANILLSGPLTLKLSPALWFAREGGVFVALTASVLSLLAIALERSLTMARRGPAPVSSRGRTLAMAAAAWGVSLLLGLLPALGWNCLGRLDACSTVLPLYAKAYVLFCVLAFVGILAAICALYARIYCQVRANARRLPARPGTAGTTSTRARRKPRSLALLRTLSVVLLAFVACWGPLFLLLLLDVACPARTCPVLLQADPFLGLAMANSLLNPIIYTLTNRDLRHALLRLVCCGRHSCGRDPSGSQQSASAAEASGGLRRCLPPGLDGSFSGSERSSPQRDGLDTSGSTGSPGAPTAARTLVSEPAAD
Procedure: as §1, §2, §4, §3

[7] = system: peripheral blood lymphocytes; experiment: Peripheral blood lymphocytes (lymphopenia) in c57bl/6 mice, acute and chronic studies; format: in vivo; conditions: 7 days
Procedure: Compounds were tested for changes in peripheral blood lymphocytes in c57bl/6 mice. In acute studies, animals (n=5/group) were dosed subcutaneously with test compound at a dose of 3 mg/kg. Animals were sacrificed at specific time points and 500 μl of whole blood was collected in EDTA (K2) Eppendorf tubes. Blood was stored on ice and shipped immediately overnight delivery to Charles River Laboratories for analysis. CRL ran samples through their WBC/differential panel on an Advia 120 instrument. We received peripheral lymphocyte counts (10^3 cells/μl) for each blood sample. Treatment group means were compared to a vehicle treatment group for statistical significance. In chronic studies, animals (n=6-8/group) were dosed subcutaneously with test compound either in a dose response paradigm (highest dose of 3 mg/kg) or in a screening paradigm at 6 mg/kg for seven days. On the seventh day, animals were sacrificed 45 minutes after the final dose. Whole blood was collected and analyzed as described for acute studies. […]

[8] = inhibition of cAMP production, S1P1 CHO-K1 cells
[9] = β-arrestin2 recruitment, S1P1 CHO-K1 cells

Row | SMILES | Emax [1] [%] | hS1P1 cAMP pEC50 [1, 8] | Emax [2] [%] | hS1P1 B-arrestin2 pEC50 [2, 9] | inhibition in vivo at 3 mg/kg [3] [%] | inhibition in vivo at 1 mg/kg [3] [%] | Emax [4] [%] | hS1P2 IP-one pEC50 [4] | Emax [5] [%] | hS1P3 cAMP pEC50 [5] | Emax [6] [%] | hS1P5 cAMP pEC50 [6] | EC50 ([1]; inhibition of cAMP production, S1P1 CHO-K1 cells, read-out: hS1P1 cAMP pEC50 (converted)) [µM] | EC50 ([2]; β-arrestin2 recruitment, S1P1 CHO-K1 cells, read-out: hS1P1 B-arrestin2 pEC50 (converted)) [µM] | Lymphopenia: Effect and Doses, mg/kg, sc ([7]; peripheral blood lymphocytes vs vehicle, 3 mg/kg sc) | Lymphopenia: Effect and Doses, mg/kg, sc (change in peripheral blood lymphocytes) ([7]; 6 mg/kg sc, significance vs vehicle given)
1 | CCC1(CC)CC(=O)c2cc(-c3nc(-c4ccc(NS(C)(=O)=O)cc4)no3)ccc2O1 [Compound 262, N-(4-(5-(2,2-diethyl-4-oxochroman-6-yl)-1,2,4-oxadiazol-3-yl)phenyl)methanesulfonamide] | > 75 | >6.5 | > 75 | >5 | > 50 | > 50 | > 50 | <5.0 | < 50 | <5.0 | < 50 | <5.0 |  |  |  | 
2 | CC(C)Nc1ccc(-c2nc(-c3ccc4c(c3)CCC(=O)N4)no2)cc1C#N [Compound 259, 2-(isopropylamino)-5-(3-(2-oxo-1,2,3,4-tetrahydroquinolin-6-yl)-1,2,4-oxadiazol-5-yl)benzonitrile] | > 75 | >6.5 | < 75 | >5 |  | < 50 | < 50 | <5.0 | < 50 | <5.0 | < 50 | <5.0 |  |  |  | 
3 | C=CCNc1ccc(-c2nc(-c3cn[nH]c3)no2)cc1C#N [Compound 252, 5-(3-(1H-pyrazol-4-yl)-1,2,4-oxadiazol-5-yl)-2-(allylamino)benzonitrile] |  |  |  |  |  | < 50 |  | >5.0 |  | >5.0 |  | >5.0 | < 0.316 | < 10 |  | 
4 | COc1ccccc1-c1coc(-c2ccc3c(c2)nnn3C(C)C)n1 [Compound 277, 5-[4-(2-methoxyphenyl)-1,3-oxazol-2-yl]-1-(propan-2-yl)-1H-1,2,3-benzotriazole] | > 75 | >6.5 | > 75 | >5 |  | > 50 | > 50 | <5.0 | < 50 | <5.0 | < 50 | <5.0 |  |  |  | 
5 | CC(C)Oc1ccc(-c2nc(-c3ccc4c(c3)nnn4C(C)C)no2)cc1C#N [Compound 22, 2-isopropoxy-5-(3-(1-isopropyl-1H-benzo[d][1,2,3]triazol-5-yl)-1,2,4-oxadiazol-5-yl)benzonitrile] |  |  |  |  |  |  |  |  |  |  |  |  |  |  | no change: 3 mg/kg, 7 days | 
6 | C=CCNc1ccc(-c2nc(-c3ccc4[nH]cnc4c3)no2)cc1C#N [Compound 177, 5-(3-(1H-benzo[d]imidazol-5-yl)-1,2,4-oxadiazol-5-yl)-2-(allylamino)benzonitrile] | > 75 | >6.5 | > 75 | >5 |  | > 50 | < 50 | <5.0 | > 50 | >5.0 | > 50 | >5.0 |  |  |  | 
7 | CCC1(CC)CC(=O)c2cc(-c3nc(-c4ccccc4Cl)no3)ccc2O1 [Compound 221, 6-(3-(2-chlorophenyl)-1,2,4-oxadiazol-5-yl)-2,2-diethylchroman-4-one] |  | >6.5 |  | >5 |  | < 50 |  | <5.0 |  | >5.0 |  | >5.0 |  |  |  | 
8 | CCC1(CC)CC(=O)c2cc(-c3nc(-c4ccnc(O)c4)no3)ccc2O1 [Compound 263, 2,2-diethyl-6-[3-(2-hydroxy-4-pyridyl)-1,2,4-oxadiazol-5-yl]chroman-4-one] |  | >6.5 |  | >5 | > 50 | > 50 |  | <5.0 |  | <5.0 |  | <5.0 |  |  |  | 
9 | C=CCNc1ccc(-c2nc(-c3ccc4sc(N)nc4c3)no2)cc1C#N [Compound 267, 2-(allylamino)-5-(3-(2-aminobenzo[d]thiazol-5-yl)-1,2,4-oxadiazol-5-yl)benzonitrile] |  | >6.5 |  | >5 |  | > 50 |  | <5.0 |  | <5.0 |  | <5.0 |  |  |  | 
10 | CC(C)Nc1ccc(-c2ncc(-c3cccnc3)cn2)cc1C#N [Compound 737, 2-(isopropylamino)-5-(5-(pyridin-3-yl)pyrimidin-2-yl)benzonitrile] |  |  |  |  |  |  |  |  |  |  |  |  |  |  |  | −40% not stat sig: 6 mg/kg, 7 days
11 | CCC1(CC)CC(=O)c2cc(-c3nc(-c4ccc(C(=O)NC)cc4)no3)ccc2O1 [Compound 185, 4-(5-(2,2-diethyl-4-oxochroman-6-yl)-1,2,4-oxadiazol-3-yl)-N-methylbenzamide] | > 75 | >6.5 | > 75 | >5 |  | > 50 | < 50 | <5.0 | < 50 | <5.0 | > 50 | <5.0 |  |  |  | 
12 | C=CCNc1ccc(-c2nc(-c3ccc(NS(C)(=O)=O)cc3)no2)cc1C#N [Compound 149, N-(4-(5-(4-(allylamino)-3-cyanophenyl)-1,2,4-oxadiazol-3-yl)phenyl)methanesulfonamide] | > 75 | >6.5 | > 75 | >5 |  | < 50 | < 50 | <5.0 | > 50 | >5.0 | > 50 | >5.0 |  |  |  | 

Reference: US11912693B2, “Compounds for modulating S1P1 activity and methods of using the same” (TREVENA, INC., priority 2017, dated 2024)
